{"source": "patent US20040138241A1", "about": "“Novel use of arylethenesulfonamide derivative” (priority 2001, published 2004)", "key": {"[1]": {"test_system": "prostatic urethral pressure in anesthetized dogs", "type": "in vivo, dog", "conditions": "for EC50 value of increase of PUP, reduced into molar concentration: i.a. local administration, mean±standard error", "protocol": "After waiting for stabilization of hemodynamics following the operation, the balloon was fixed to the prostatic urethra and expanded, and a prostatic urethral pressure (PUP) was measured from a change in pressure within the balloon.\nET-1 (from 0.006 to 0.8 μg/kg i.a., molar concentration: from 0.0025 to 0.321 nmol/kg i.a.) and phenylephrine hydrochloride (from 0.06 to 8 μg/kg i.a.; molar concentration: from 0.307 to 39.3 nmol/kg i.a.) were locally administered, thereby comparing the dose-response curve of an increasing action of PUP by the drugs.\nIn the experiments, dogs in which a degree of increase of PUP was observed 40 cmH2O or more in the pre-contraction with phenylephrine hydrochloride (8 μg/kg i.a.) were used."}, "[2]": {"test_system": "urethral pressure in anesthetized dogs", "description": "Male beagle dogs (body weight: from 8 to 13 kg) were subjected to artificial ventilation under the anesthesia with pentobarbital, a catheter was inserted into a left femoral artery for measurement of blood pressure and heart rate and a left femoral vein for administration of drug. A catheter for measurement of urethral pressure (from 8 to 10Fr, 2 holes, manufactured by Create Medic Co., Ltd.) was inserted from an external urethral meatus toward urinary bladder. An automatic syringe pump was connected with one end of the catheter, and a pressure transducer was connected with the other end thereof. […] At the same time, by drawing out the catheter from the urinary bladder into the external urethral meatus at a rate of 25 mm/min by an automatic drawing unit, the pressure was measured and recorded throughout urethra as a urethral pressure profile (UPP) as shown in FIG. 6.\nIn the blood pressure-response by ET-1 since the pressure increased after a transient reduction of pressure, measurement of the urethral pressure was started about 3 minutes after the administration. On the other hand, as phenylephrine hydrochloride caused an increase of pressure immediately after the administration, measurement of the urethral pressure was started immediately after the administration.\nThree minutes after the administration, ET-1 (1 μg/kg) was again intravenously administered, and an action against the urethral pressure was studied similarly to the time of single administration."}, "[3]": {"test_system": "urethral pressure in anesthetized dogs", "experiment": "ET-1 induced increase of urethral pressure in the presence of α1 receptor blocker in anesthetized dog", "type": "in vivo", "conditions": "tamsulosin hydrochloride 10 μg/kg i.v.", "protocol": "A urethral pressure profile (UPP) was recorded according to the same operation method as in Test Example 3 .\nThirty minutes thereafter, the same amount of tamsulosin hydrochloride (10 μg/kg i.v.) was again intravenously administered."}, "[4]": {"test_system": "isolated rabbit prostate, urethra and bladder base preparations", "experiment": "Concentration-response of agonists in isolated rabbit lower urinary tract preparations", "type": "biochemical", "conditions": "cumulative addition", "experimental": "Male Japanese white rabbits (from 3 to 5 kg, available from Kitayama Labes Co., Ltd.) were provided for experiments. Prostate, urethra and bladder were isolated from the rabbit to prepare ring preparations of smooth muscle. With respect to the bladder, a dorsal region of the bladder base was used as preparation. Each of the preparations was suspended in an organ bath filled with a Krebs-Henselit solution at 37 ° C., into which was then aerated a 95% O2-5% CO2 gas. A resting tension was subjected as 1g, and a tension change was isometrically measured. Incidentally, the organ bath for preventing adsorption of ET-1 was previously subjected to silicon treatment. After elapse of an equilibrium period for 60 minutes, the preparation was contracted twice by 10 μM phenylephrine hydrochloride to be stabilized the responsibility, and a main experiment was started.\nET-1 (from 0.1 to 1,000 nM), phenylephrine hydrochloride (from 0.01 to 100 μM), S6c (from 1 to 1,000 nM), or acetylcholine (from 0.01 to 1,000 μM) was cumulatively added to the organ bath to obtain a concentration-response curve. […] The contraction response to each agonists was expressed while defining the contraction by phenylephrine hydrochloride (10 μM) as obtained immediately therebefore as 100%."}, "[5]": {"conditions": "ET-1 1 μg/kg i.v., phenylephrine hydrochloride 30 μg/kg i.v."}}, "note": "Structures can show the parent of a compound that is named as a salt. Where two headings read alike, the source gives them in different places."}
{"compound": "CC[C@H](C)[C@H](NC(=O)[C@H](CC(=O)O)NC(=O)[C@H](CC(C)C)NC(=O)[C@H](Cc1cnc[nH]1)NC(=O)[C@@H]1CSSC[C@H](N)C(=O)N[C@@H](CO)C(=O)N[C@H]2CSSC[C@H](NC(=O)[C@H](CCC(=O)O)NC(=O)[C@H](CCCCN)NC(=O)[C@H](CC(=O)O)NC(=O)[C@H](CCSC)NC(=O)[C@H](CC(C)C)NC(=O)[C@H](CO)NC(=O)[C@H](CO)NC2=O)C(=O)N[C@@H](C(C)C)C(=O)N[C@@H](Cc2ccc(O)cc2)C(=O)N[C@@H](Cc2ccccc2)C(=O)N1)C(=O)N[C@H](C(=O)N[C@@H](Cc1c[nH]c2ccccc12)C(=O)O)[C@@H](C)CC", "note": "[ET-1]", "values": [{"measurement": "duration of increase response of PUP relative to phenylephrine hydrochloride", "setting": "[1]; ET-1 0.4 μg/kg i.a. vs phenylephrine hydrochloride 2 μg/kg i.a., typical example", "value": "about 3 times"}, {"measurement": "concentration for increasing action of prostatic urethral pressure, times lower than phenylephrine hydrochloride", "setting": "[1]; anesthetized dog, i.a.", "value": "about 100 times"}, {"measurement": "maximum response of PUP, of that of phenylephrine hydrochloride", "setting": "[1]; anesthetized dog, i.a.", "value": "43.9 ±5.2", "unit": "%"}, {"measurement": "EC50 value of increase of PUP, reduced into molar concentration", "setting": "[1]; anesthetized dog", "value": "0.08 ± 0.03", "unit": "nmol/kg"}, {"measurement": "action on urethral pressure (UPP)", "setting": "[2]; [5]", "value": "remarkable increase of the pressure throughout urethra other than prostate in addition to an increase of the urethral pressure of prostate"}, {"measurement": "action on mean blood pressure", "setting": "[2]; dog, in vivo, iv", "value": "without substantially affecting the mean blood pressure"}, {"measurement": "action on urethral pressure in the presence of tamsulosin hydrochloride", "setting": "[3]; ET-1 1 μg/kg i.v.", "value": "increased the urethral pressure of the whole of lower urinary tract including prostate"}]}
{"compound": "CNC[C@H](O)c1cccc(O)c1", "note": "[phenylephrine hydrochloride]", "values": [{"measurement": "EC50 value of increase of PUP, reduced into molar concentration", "setting": "[1]; anesthetized dog", "value": "7.47 ± 2.82", "unit": "nmol/kg"}, {"measurement": "degree of increase of PUP relative to ET-1", "setting": "[1]; phenylephrine hydrochloride 2 μg/kg i.a. vs ET-1 0.4 μg/kg i.a., typical example", "value": "higher about twice"}, {"measurement": "action on mean blood pressure", "setting": "[2]; [5]", "value": "increase of mean blood pressure"}, {"measurement": "action on urethral pressure (UPP)", "setting": "[2]; [5]", "value": "remarkable increase of the urethral pressure of prostate"}]}
{"compound": "CCOc1ccccc1OCCN[C@H](C)Cc1ccc(OC)c(S(N)(=O)=O)c1", "note": "[tamsulosin hydrochloride]", "values": [{"measurement": "action on prostatic urethral pressure", "setting": "[3]; anesthetized dogs", "value": "reduced the prostatic urethral pressure"}]}
{"compound": "sarafotoxin S6c [Compound S6c]", "values": [{"measurement": "contraction of isolated preparations (in words)", "setting": "[4]", "value": "not substantially observed"}]}
